Among the data in patent US20090286827A1, “NOVEL BI-ARYL AMINES” (priority 2006, published 2009) are inhibition values, retold here.

Molecules are shown by their SMILES.

For the assay, the target named is T1, mGluR5 (Homo sapiens, UniProt P41594).
T1 construct: expressed in transfected cells
T1 sequence (P41594 21-1180 isoform P41594-2 limits assumed): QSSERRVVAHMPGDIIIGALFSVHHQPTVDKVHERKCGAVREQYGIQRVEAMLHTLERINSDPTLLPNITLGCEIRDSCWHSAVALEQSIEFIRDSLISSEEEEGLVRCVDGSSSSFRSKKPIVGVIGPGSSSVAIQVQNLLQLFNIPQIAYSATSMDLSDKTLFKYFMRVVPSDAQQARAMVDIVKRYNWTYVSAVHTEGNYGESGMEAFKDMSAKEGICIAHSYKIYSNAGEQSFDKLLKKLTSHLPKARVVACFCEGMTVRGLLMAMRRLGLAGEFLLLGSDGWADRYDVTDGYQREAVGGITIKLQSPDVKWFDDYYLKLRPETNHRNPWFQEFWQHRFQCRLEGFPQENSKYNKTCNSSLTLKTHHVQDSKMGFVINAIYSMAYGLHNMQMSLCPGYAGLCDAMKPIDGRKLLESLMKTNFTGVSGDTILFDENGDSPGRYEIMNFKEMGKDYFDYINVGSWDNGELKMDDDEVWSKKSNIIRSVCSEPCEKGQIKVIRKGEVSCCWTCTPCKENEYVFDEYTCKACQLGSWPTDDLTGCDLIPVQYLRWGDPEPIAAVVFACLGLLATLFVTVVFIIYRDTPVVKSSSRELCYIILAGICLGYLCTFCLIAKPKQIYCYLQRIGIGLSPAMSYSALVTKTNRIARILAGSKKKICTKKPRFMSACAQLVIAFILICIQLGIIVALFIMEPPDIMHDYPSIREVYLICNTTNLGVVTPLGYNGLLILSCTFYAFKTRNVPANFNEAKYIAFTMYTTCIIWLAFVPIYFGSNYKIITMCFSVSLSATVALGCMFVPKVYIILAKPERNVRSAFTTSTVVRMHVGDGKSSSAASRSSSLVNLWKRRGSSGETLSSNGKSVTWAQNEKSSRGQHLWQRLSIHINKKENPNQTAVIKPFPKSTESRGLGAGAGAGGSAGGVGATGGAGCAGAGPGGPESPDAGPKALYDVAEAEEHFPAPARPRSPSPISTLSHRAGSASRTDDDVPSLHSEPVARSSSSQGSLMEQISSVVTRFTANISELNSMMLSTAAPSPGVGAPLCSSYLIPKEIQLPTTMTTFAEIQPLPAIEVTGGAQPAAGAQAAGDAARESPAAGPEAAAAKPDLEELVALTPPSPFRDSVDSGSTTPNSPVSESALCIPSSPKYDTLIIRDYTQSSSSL
In words: inhibition of the glutamate induced elevation of intracellular Ca2+-concentration. The format is cell-based. Conditions: inhibition of glutamate induced elevation of intracellular Ca2+ at a concentration of 10 μM; read-out: mGluR5 Activity inh. at 10 μM [%]. From the text:
This can be determined in vitro for example at recombinant human metabotropic glutamate receptors, especially PLC-coupled subtypes thereof such as mGluR5, using different procedures like, for example, measurement of the inhibition of the agonist induced elevation of intracellular Ca^2+ concentration in accordance with L. P. Daggett et al., Neuropharm. Vol. 34, pages 871-886 (1995), P. J. Flor et al., J. Neurochem. Vol. 67, pages 58-63 (1996) or by determination to what extent the agonist induced elevation of the inositol phosphate turnover is inhibited as described by T. Knoepfel et al., Eur. J. Pharmacol. Vol. 288, pages 389-392 (1995), L. P. Daggett et al., Neuropharm. Vol. 34, pages 871-886 (1995) and references cited therein. Isolation and expression of human mGluR subtypes are described in U.S. Pat. No. 5,521,297. Selected agents of the invention show IC50 values for the inhibition of the agonist (e.g. glutamate or quisqualate) induced elevation of intracellular Ca2+ concentration or the agonist (e.g. glutamate or quisqualate) induced inositol phosphate turnover, measured in recombinant cells expressing hmGluR5a of about 1 nM to about 50 μM.
Activity of compounds of the present invention was examined by measurement of the inhibition of the glutamate induced elevation of intracellular Ca^2+-concentration following similar methods than those described in L. P. Daggett et al., Neuropharm. Vol. 34, pages 871-886 (1995), P. J. Flor et al., J. Neurochem. Vol. 67, pages 58-63 (1996).
The table below represents percentages of inhibition of the glutamate induced elevation of intracellular Ca^2+-concentration at a concentration of 10 μM.
On to `CC(C)n1cnc(-c2ccc(Nc3ccc(Cl)cc3)nc2)c1` [Compound 11, (4-Chloro-phenyl)-[5-(1-isopropyl-1H-imidazol-4-yl)-pyridin-2-yl]-amine], for which the inhibition at 10 µM was 56%.
To `CC(C)Cn1nnnc1-c1cnc(Nc2ccc(Cl)cc2)c(Cl)c1` [Compound 23, [3-Chloro-5-(1-isobutyl-1H-tetrazol-5-yl)-pyridin-2-yl]-(4-chloro-phenyl)-amine] belongs 53%; to `CCCc1cnnn1-c1cnc(Nc2ccc(Cl)cc2)c(Cl)c1` [Compound 45, (4-Chloro-phenyl)-[3-chloro-5-(5-propyl-[1,2,3]triazol-1-yl)-pyridin-2-yl]-amine], 89%; to `CCCn1cc(C(C)(C)C)nc1-c1cnc(Nc2ccc(Cl)cc2)c(Cl)c1` [Compound 40, [5-(4-tert-Butyl-1-propyl-1H-imidazol-2-yl)-3-chloro-pyridin-2-yl]-(4-chloro-phenyl)-amine], 100%.
To `CC(C)n1cncc1-c1ccc(Nc2ccc(Cl)cc2)nc1` [Compound 10, (4-Chloro-phenyl)-[5-(3-isopropyl-3H-imidazol-4-yl)-pyridin-2-yl]-amine] belongs 73%.
With `CCn1c(-c2cnc(Nc3ccc(Cl)cc3)c(Cl)c2)nc(C)c1C` [Compound 20, [3-Chloro-5-(1-ethyl-4,5-dimethyl-1H-imidazol-2-yl)-pyridin-2-yl]-(4-chloro-phenyl)-amine], the inhibition at 10 µM is 92%.
`CC(C)n1cnnc1-c1ccc(Nc2ccc(Cl)cc2)nc1` [Compound 12, (4-Chloro-phenyl)-[5-(4-isopropyl-4H-[1,2,4]triazol-3-yl)-pyridin-2-yl]-amine]: the inhibition at 10 µM was found to be 40%.
Then `CCn1cc(C)nc1-c1cnc(Nc2ccc(Cl)cc2)c(Cl)c1` [Compound 32, [3-Chloro-5-(1-ethyl-4-methyl-1H-imidazol-2-yl)-pyridin-2-yl]-(4-chloro-phenyl)-amine], with 95%.
As for `Cn1cc(C(C)(C)C)nc1-c1cnc(Nc2ccc(Cl)cc2)c(Cl)c1` [Compound 38, [5-(4-tert-Butyl-1-methyl-1H-imidazol-2-yl)-3-chloro-pyridin-2-yl]-(4-chloro-phenyl)-amine], the inhibition at 10 µM is 86%.
Then `Clc1ccc(Nc2ncc(-c3nnc4n3CCCCCC4)cc2Cl)cc1` [Compound 26, [3-Chloro-5-(5,6,7,8,9,10-hexahydro-[1,2,4]triazolo[4,3-a]azocin-3-yl)-pyridin-2-yl]-(4-chloro-phenyl)-amine], with 98%.
Then `CCCCc1cnnn1-c1cnc(Nc2ccc(Cl)cc2)c(Cl)c1` [Compound 44, [5-(5-Butyl-[1,2,3]triazol-1-yl)-3-chloro-pyridin-2-yl]-(4-chloro-phenyl)-amine], with 98%; and `Clc1ccc(Nc2ncc(-c3nnc4n3CCCCCCC4)cc2Cl)cc1` [Compound 27, [3-Chloro-5-(6,7,8,9,10,11-hexahydro-5H-[1,2,4]triazolo[4,3-a]azonin-3-yl)-pyridin-2-yl]-(4-chloro-phenyl)-amine], with 100%; and `CC(C)(C)c1cnc(-c2cnc(Nc3ccc(Cl)cc3)c(Cl)c2)[nH]1` [Compound 37, [5-(5-tert-Butyl-1H-imidazol-2-yl)-3-chloro-pyridin-2-yl]-(4-chloro-phenyl)-amine], with 95%.
